Experimental data reported in PubChem BioAssay (NCI).
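Step 1: Grow cells in 96-well plates. Step 2: Expose to compound for 48 hours at 5 concentrations. Step 3: Interpolate endpoints linearly; if unreached, use highest concentration. TGI denotes the concentration required for complete inhibition of growth.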

How the values were obtained:
Assay in all cases: NCI anticancer screen, dose series, 48 h
[1] = system: 786-0 renal
[2] = system: A549 NSCLC
[3] = system: ACHN renal
[4] = system: CAKI-1 renal
[5] = system: CCRF-CEM leukemia
[6] = system: COLO 205 colon
[7] = system: DU-145 prostate
[8] = system: EKVX NSCLC
[9] = system: HCT-116 colon
[10] = system: HCT-15 colon
[11] = system: HL-60(TB) leukemia
[12] = system: HOP-62 NSCLC
[13] = system: HS 578T breast
[14] = system: HT29 colon
[15] = system: IGROV1 ovarian
[16] = system: K-562 leukemia
[17] = system: KM12 colon
[18] = system: LOX IMVI melanoma
[19] = system: M14 melanoma
[20] = system: MCF7 breast
[21] = system: MDA-MB-231 breast
[22] = system: MDA-MB-435
[23] = system: MDA-N
[24] = system: MOLT-4 leukemia
[25] = system: NCI-H226 lung
[26] = system: NCI-H460 lung
[27] = system: NCI-H522 lung
[28] = system: NCI/ADR-RES ovarian
[29] = system: OVCAR-3 ovarian
[30] = system: OVCAR-5 ovarian
[31] = system: OVCAR-8 ovarian
[32] = system: PC-3 prostate
[33] = system: RPMI-8226 leukemia
[34] = system: RXF 393 renal
[35] = system: SF-268 CNS
[36] = system: SF-295 CNS
[37] = system: SF-539 CNS
[38] = system: SK-MEL-2 melanoma
[39] = system: SK-MEL-28 melanoma
[40] = system: SK-MEL-5 melanoma
[41] = system: SK-OV-3 ovarian
[42] = system: SN12C renal
[43] = system: SNB-19 CNS
[44] = system: SNB-75 CNS
[45] = system: SR leukemia
[46] = system: SW-620 colon
[47] = system: T-47D breast
[48] = system: TK-10 renal
[49] = system: U251 CNS
[50] = system: UACC-257 melanoma
[51] = system: UO-31 renal
[52] = system: A498 renal
[53] = system: BT-549 breast
[54] = system: HCC-2998 colon
[55] = system: HOP-92 NSCLC
[56] = system: NCI-H23 lung
[57] = system: OVCAR-4 ovarian
[58] = system: UACC-62 melanoma
[59] = system: MALME-3M melanoma

Measured: TGI

CC1(C)CC(=O)c2c(nc3c(ccc4ccccc43)c2-c2ccc(NC(=O)CCCC(=O)Nc3ccc(-c4c5c(nc6c4ccc4ccccc46)CC(C)(C)CC5=O)cc3)cc2)C1
not listed: [52] | [53] | [54] | [55] | [56] | [57] | [58] | [59]
> 100 µM: all other assays above

CCCCOC(=O)NC(c1ccccc1)C(O)C(=O)OC1C[C@@]2(O)C(OC(=O)c3ccccc3)C3[C@](C)(C(=O)[C@H](OC(C)=O)C(=C1C)C2(C)C)[C@@H](O)C[C@H]1OC[C@@]31OC(C)=O (stereo partly specified)
0.0755 µM: [34]
0.00741 µM: [11]
> 7.96 µM: [33]
> 9.14 µM: [24]
0.0175 µM: [37]
> 6.88 µM: [29]
0.0663 µM: [52]
0.595 µM: [54]
0.0113 µM: [23]
6.81 µM: [14]
0.0469 µM: [13]
> 6.5 µM: [28]
0.0241 µM: [22]
not listed: [4] | [7] | [25] | [27] | [38] | [39] | [50] | [59]
> 10 µM: all other assays above

CCOC(=O)Cn1nc2ccc(Nc3c(C)[n+]([O-])c4cc(F)c(OCC)cc4[n+]3[O-])cc2n1
71.8 µM: [48]
51.9 µM: [34]
63.8 µM: [55]
90.2 µM: [3]
not listed: [2] | [6] | [42] | [43] | [44] | [53] | [54] | [58] | [59]
> 100 µM: all other assays above

COc1cc2c(c(OC)c1OC)-c1ccc(SC)c(=O)cc1[C@@H](OC(=O)c1ccncc1)CC2
< 0.01 µM: [14] | [25] | [28] | [36] | [37]
43.7 µM: [41]
> 39.1 µM: [45]
> 46.8 µM: [15]
23.2 µM: [4]
15.4 µM: [40]
> 35 µM: [9]
24 µM: [50]
39.5 µM: [27]
49.3 µM: [35]
21.9 µM: [29]
56.7 µM: [19]
52.6 µM: [51]
46.8 µM: [5]
22.8 µM: [53]
21.4 µM: [52]
31.2 µM: [3]
> 82.9 µM: [34]
> 40.3 µM: [1]
> 35.7 µM: [18]
> 32.1 µM: [58]
55.3 µM: [48]
> 62.7 µM: [7]
11.2 µM: [26]
11.6 µM: [54]
> 56.5 µM: [13]
not listed: [10] | [17] | [22] | [33] | [39] | [42] | [59]
> 100 µM: all other assays above

O=c1ccn(C2OC(COC3CCCCO3)C(OC3CCCCO3)C2OC2CCCCO2)c(=O)n1-c1ccccc1 (stereo unspecified)
not listed: [53] | [58]
> 100 µM: all other assays above
